Measured values published in patent US10344019B2 (priority 2010, dated 2019).

Legend:
Format in all cases: cell-based
[1] = system: HCV 2a Rluc cells (NS5A chimeric genotype 2a JFH-1 replicon with genotype 2a J6 strain NS5A gene, M31 present); assay: HCV replicon reporter assay, genotype 2a J6 (M31 present); conditions: Hepatitis C virus, read-out: 2a J6
Method: Evaluation of cell-based anti-HCV activity: Antiviral potency (EC50) was determined using a Renilla luciferase (RLuc)-based HCV replicon reporter assay. To perform the assay for genotype 1 and 2a JFH-1, HCV 1b RLuc cells (harboring a dicistronic genotype 1b Con1 replicon that encodes a RLuc reporter), or HCV 1a RLuc cells (harboring a dicistronic genotype 1a H77 replicon that encodes a RLuc reporter), or HCV 2a JFH-1 Rluc cells (harboring a dicistronic genotype 2a JFH-1 replicon that encodes a RLuc reporter) were dispensed into 384-well plates. To perform the assay for genotype 2a (with M31 present) or 2b, HCV 2a Rluc or 2b Rluc cells (both with M31 present) harboring a dicistronic NS5A chimeric genotype 2a JFH-1 replicon that encodes a RLuc reporter and either genotype 2a J6 strain NS5A gene or genotype 2b MD2b-1 NS5A gene (based on Los Alamos HCV database isolates, both with M31 present) respectively, were dispensed into 384-well plates. To perform the assay for genotype 3 and 4, HCV 3a RLuc or 4a Rluc cells harboring a dicistronic NS5A chimeric genotype 1b Con1 replicon that encodes a RLuc reporter and either a consensus genotype 3a NS5A gene or genotype 4a NS5A gene (based on Los Alamos HCV database isolates) respectively, were dispensed into 384-well plates. Compounds were re-suspended in DMSO at a concentration of 10 mM and serially diluted in DMSO either manually or using an automated pipeting instrument. Serially diluted compounds were mixed with cell culture media and added to the seeded cells. […] 72 hours later, cells were lysed and Renilla luciferase activity quantified as recommended by the manufacturer (Promega-Madison, Wis.). Non-linear regression was performed to calculate EC50 values.

[2] = system: HCV 1a RLuc cells (dicistronic genotype 1a H77 replicon, RLuc reporter); assay: microbe, parasite or virus in culture; conditions: Hepatitis C virus, genotype 1a H77 RLuc replicon; read-out: 1a
Procedure, shortened: (§1)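 Replicon cells stably carrying the listed RLuc-encoding dicistronic replicons were seeded and treated with DMSO serial dilutions of compound (10 mM stocks) diluted into culture medium. After 72 h, cells were lysed and Renilla luciferase activity measured. EC50 was derived by non-linear regression.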

[3] = system: HCV 2b Rluc cells (NS5A chimeric genotype 2a JFH-1 replicon with genotype 2b MD2b-1 NS5A gene, M31 present); assay: microbe, parasite or virus in culture; conditions: Hepatitis C virus, read-out: 2b
Procedure, shortened: as §1

[4] = system: HCV 4a Rluc cells (NS5A chimeric genotype 1b Con1 replicon with genotype 4a NS5A gene); assay: microbe, parasite or virus in culture; conditions: Hepatitis C virus, read-out: 4a
Procedure, shortened: as §1

[5] = system: HCV 1b RLuc cells (dicistronic genotype 1b Con1 replicon, RLuc reporter); assay: microbe, parasite or virus in culture; conditions: Hepatitis C virus, read-out: 1b (nM)
Procedure, shortened: as §1

[6] = system: HCV 2a JFH-1 Rluc cells (dicistronic genotype 2a JFH-1 replicon, RLuc reporter); assay: microbe, parasite or virus in culture; conditions: Hepatitis C virus, genotype 2a JFH-1 RLuc replicon; read-out: 2a JFH
Procedure, shortened: as §1

[7] = system: HCV 3a RLuc cells (NS5A chimeric genotype 1b Con1 replicon with consensus genotype 3a NS5A gene); assay: microbe, parasite or virus in culture; conditions: Hepatitis C virus, read-out: 3a, genotype 3a NS5A chimeric replicon
Procedure, shortened: as §1

SMILES | EC50 [1] | EC50 [2] | EC50 [3] | EC50 [4] | EC50 [5] | EC50 [6] | EC50 [7]
CC[C@H](C)[C@H](NC(=O)OC)C(=O)N1CCC[C@H]1c1ncc(-c2ccc(-c3ccc4c(ccc5nc([C@@H]6C[C@H](COC)CN6C(=O)[C@H](NC(=O)C6CC6)c6ccccc6)[nH]c54)c3)cc2)[nH]1 [Example 534] | 0.001 to 0.999 nM | 0.001 to 0.999 nM | 0.001 to 0.999 nM | 0.001 to 0.99 nM | 0.011 nM | 0.001 to 0.999 nM | 
COC[C@H]1C[C@@H](c2ncc(-c3ccc(-c4ccc(-c5cnc([C@@H]6C[C@H](C)CN6C(=O)[C@H](NC(=O)C6CC6)c6ccccc6)[nH]5)cc4)cc3)[nH]2)N(C(=O)[C@@H](NC(=O)OC)C(C)C)C1 [Example 557] | 0.001 to 0.999 nM | 0.001 to 0.999 nM | 0.001 to 0.999 nM | 0.001 to 0.99 nM | 0.028 nM | 0.001 to 0.999 nM | 
COC(=O)N[C@H](C(=O)N1CCC[C@H]1c1ncc(-c2cc3c4c(c2)OCc2cc(-c5cnc([C@@H]6CCCN6C(=O)[C@H](NC(=O)C6CCC6)c6ccccc6)[nH]5)cc(c2-4)OC3)[nH]1)C(C)C [Example 521] | 0.001 to 0.999 nM | 0.001 to 0.999 nM | 0.001 to 0.999 nM | 0.001 to 0.99 nM | 0.028 nM | 0.001 to 0.999 nM | 
COC[C@H]1C[C@@H](c2nc3ccc4cc(-c5ccc6c(ccc7nc([C@@H]8C[C@H](C)CN8C(=O)[C@@H](NC(=O)OC)C(C)C)[nH]c76)c5)ccc4c3[nH]2)N(C(=O)[C@H](NC(=O)C2CC(F)(F)C2)c2ccccc2)C1 [Example 542] | 0.001 to 0.999 nM | 0.001 to 0.999 nM | 0.001 to 0.999 nM | 0.001 to 0.99 nM | 0.05 nM | 0.001 to 0.999 nM | 
COC(=O)N[C@H](C(=O)N1CCC[C@H]1c1nc2ccc3cc(-c4ccc5c(ccc6nc([C@@H]7C[C@H](COC(F)F)CN7C(=O)[C@H](NC(=O)OC)c7ccccc7)[nH]c65)c4)ccc3c2[nH]1)C(C)C [Example 528] | 0.001 to 0.999 nM | 0.001 to 0.999 nM | 0.001 to 0.999 nM | 0.001 to 0.99 nM | 0.01 nM | 0.001 to 0.999 nM | 
COC[C@H]1C[C@@H](c2nc3ccc4cc(-c5ccc6c(ccc7nc([C@@H]8C[C@H](C)CN8C(=O)[C@@H](NC(=O)OC)C(C)C)[nH]c76)c5)ccc4c3[nH]2)N(C(=O)[C@H](NC(=O)C2CCC2)c2ccccc2)C1 [Example 541] | 0.001 to 0.999 nM | 0.001 to 0.999 nM | 0.001 to 0.999 nM | 0.001 to 0.99 nM | 0.034 nM | 0.001 to 0.999 nM | 
COC[C@H]1C[C@@H](c2nc3ccc4cc(-c5ccc(-c6[nH]c([C@@H]7CCCN7C(=O)[C@@H](NC(=O)OC)C(C)C)nc6C)cc5)ccc4c3[nH]2)N(C(=O)[C@@H](NC(=O)OC)C(C)C)C1 [Example 524] | > 44 nM | 0.001 to 0.999 nM | 1 to 44 nM | 0.001 to 0.99 nM | 0.02 nM | 0.001 to 0.999 nM | 
COC[C@H]1C[C@@H](c2nc3ccc4cc(-c5ccc(-c6cnc([C@@H]7CCCN7C(=O)[C@@H](NC(=O)OC)C(C)C)[nH]6)cc5)ccc4c3[nH]2)N(C(=O)[C@H](NC(=O)C2CCC2)c2ccccc2)C1 [Example 533] | 0.001 to 0.999 nM | 0.001 to 0.999 nM | 0.001 to 0.999 nM | 0.001 to 0.99 nM | 0.012 nM | 0.001 to 0.999 nM | 
COC(=O)N[C@H](C(=O)N1C[C@@H](COC(F)F)C[C@H]1c1nc2ccc3cc4c(cc3c2[nH]1)OCc1cc(-c2cnc([C@@H]3CC[C@H](C)N3C(=O)[C@@H](NC(=O)OC)C(C)C)[nH]2)ccc1-4)C(C)C [Example 631] | 0.001 to 0.999 nM | 0.001 to 0.999 nM | 0.001 to 0.999 nM |  | 0.006 nM | 0.001 to 0.999 nM | > 5 nM
COC(=O)NC(C(=O)N1C[C@@H](C)C[C@H]1c1nc2ccc3cc4c(cc3c2[nH]1)OCc1cc(-c2cnc([C@@H]3CC[C@H](C)N3C(=O)[C@@H](NC(=O)OC)C(C)C)[nH]2)ccc1-4)[C@H](C)OC (some centres unmarked) [Example 621] | 0.001 to 0.999 nM | 0.001 to 0.999 nM | 0.001 to 0.999 nM |  | 0.013 nM | 0.001 to 0.999 nM | 
